For assay [1], the target named is Acyl-protein thioesterase 1 (Homo sapiens) (UniProt O75608). The assay can be described thus: LYPLA1 and LYPLA2 inhibitor potency in vitro, late-stage follow-up, cell lysate, HeLa soluble proteome, fluorescence gel (AID 743118). The note with it: gel-based ABPP FP-Rh fluorescence, LYPLA1.
Assay [2] deals with Acyl-protein thioesterase 2 (Homo sapiens) (UniProt O95372). Described as above. The note with it: gel-based ABPP FP-Rh fluorescence, LYPLA2.
Acyl-protein thioesterase 2 (Homo sapiens), sequence (O95372 whole entry, looked up): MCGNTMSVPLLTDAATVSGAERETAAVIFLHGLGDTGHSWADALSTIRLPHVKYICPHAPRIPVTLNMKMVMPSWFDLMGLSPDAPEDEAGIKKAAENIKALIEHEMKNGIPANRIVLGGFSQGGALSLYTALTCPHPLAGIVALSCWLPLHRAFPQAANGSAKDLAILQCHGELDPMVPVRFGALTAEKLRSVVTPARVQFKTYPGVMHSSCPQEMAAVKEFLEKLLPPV

Acyl-protein thioesterase 1 (Homo sapiens), sequence (O75608 whole entry, looked up): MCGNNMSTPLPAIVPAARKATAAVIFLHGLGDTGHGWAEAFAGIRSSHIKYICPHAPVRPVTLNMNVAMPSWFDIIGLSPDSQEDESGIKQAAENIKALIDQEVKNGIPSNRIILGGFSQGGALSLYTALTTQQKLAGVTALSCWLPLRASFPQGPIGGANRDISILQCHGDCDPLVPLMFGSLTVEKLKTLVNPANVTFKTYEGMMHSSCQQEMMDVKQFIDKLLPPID

As for `CC(C)(C)CC(=O)N1CCN2C(=O)N(OC(=O)N3CCC(CCc4ccc(Cl)cc4)CC3)C(=O)C2C1` (stereo not given), the IC50 was 92 nM in assay [1] and 217 nM in assay [2].
The matching figures for `O=C(ON1C(=O)C2CN(C(=O)N3CCOCC3)CCN2C1=O)N1CCC(CCc2ccc(Cl)cc2)CC1` (stereo not given): 122 nM and 245 nM.
Regarding `O=C(ON1C(=O)C2CN(C(=O)N3CCCCC3)CCN2C1=O)N1CCC(CCc2ccc(Cl)cc2)CC1` (stereo not given), the figures for the IC50 in assay [1] and in assay [2] were 154 nM and 258 nM, respectively.
For `O=C(ON1C(=O)C2CN(C(=O)N3CCCC3)CCN2C1=O)N1CCC(CCc2ccc(Cl)cc2)CC1` (stereo not given), in that order: 225 nM and 384 nM.
The matching figures for `O=C(ON1C(=O)C2CN(C(=O)c3ccc(Br)cc3)CCN2C1=O)N1CCC(CCc2ccc(Cl)cc2)CC1` (stereo not given): 306 nM and 726 nM.

Usually IC50 stands for the midpoint of a concentration-inhibition curve.
